US20260207720A1, “COMPOSITIONS AND METHODS FOR TREATING FUNGAL INFECTIONS” (MUCPharm Pty Ltd, priority 2022, published 2026)

Assays:
Format in all cases: cell-based
[1] = test system: Aspergillus fumigatus (ATCC strain 13697); assay: Broth dilution susceptibility test, MIC and percent growth (Example 7)
Method: (§1) A. Preparation of inoculum: • 1. Candida glabrata was grown on Sabouraud dextrose agar (SDA) at 37° C. for 24-48 hrs. • 2. Following this, 5 colonies of 1 mm diameter were picked and suspended in 5 mL sterile saline (0.9% saline) and vortexed for 15 seconds. • 3. Working suspension is prepared as a 1:100 dilution from stock suspension with RPMI 1640 culture medium. • 4. The cell density is adjusted with a spectrophotometer to the transmittance produced by a 0.5 McFarland standard (0.08 to 0.1) OD at 625 nm wavelength.
(§2) • 1. For Bromelain, a stock concentration of 1 mg/ml Bromelain solution was prepared in RPMI media and diluted to test concentrations of 62.4, 31.2, 15.6 and 7.8 μg/ml in RPMI 1640 media. • 2. Acetylcysteine stock concentration is 200 mg/ml, diluted to 40, 20, 10, and 5 mg/ml concentrations in RPMI 1640 medium. • 3. These concentrations are prepared at 2× of the required concentrations in the final assay plate.
(§3) Antifungal stock concentrations are as follows— • 1. Amphotericin B, Stock concentration: 250 μg/ml in water. • 2. Posaconazole, Original concentration: 300 mg in 16.7 ml, Working stock concentration: 1 mg/ml in DMSO. • 3. Fluconazole, Original concentration: 100 mg in 50 ml, Working stock concentration: 1 mg/ml in DMSO. • 4. The final concentration was prepared in RPMI 1640 media and concentrations range was 0.01-0.5 μg/mL for amphotericin B, 0.01-2 μg/mL for posaconazole and 0.01-64 μg/mL for fluconazole. • 5. These concentrations were prepared at 2× of the required concentrations in the final assay plate.
(§4) • 1. Wells of the 96-well plates were inoculated with appropriate concentrations and volumes of drugs. • 2. Sterility control and growth controls are included in each plate. • 3. Each 96-well plate (except the control wells) contains 100 μL of double strength (twice the final antifungal drug) concentrations. • 4. 100 μL of the fungal suspension is added to 96-well plates (except the sterility control wells). • 5. The growth control wells contained 100 μL of sterile drug-free medium and 100 μL of inoculum suspension, while the sterility control wells contained 200 μl of sterile drug-free medium. • 6. Plates are then incubated at 37° C. and read at 625,430, and 530 nm wavelengths. • 7. Data from 24 hours and absorbance at 625 nm were used for analysis.
These experiments were conducted to determine the efficacy of BromAc alone and in combination with existing antifungal drugs against Aspergillus fumigatus (ATCC strain 13697).
The method used in these experiments is essentially the same as that described above in Example 5. In these experiments, however, echinocandins such as […] Caspofungin are used in place of the azole antifungals described in earlier examples.

[2] = test system: Candida Krusei (ATCC strain 6258); assay: Broth dilution susceptibility test, MIC and percent growth (Example 6)
Method: as §1, §2, §3, §4
These experiments were conducted to determine the effect of BromAc alone and in combination with existing antifungal drugs against Candida Krusei (ATCC strain 6258).
The method used in these experiments is essentially the same as that described above in Example 5.

[3] = test system: Candida glabrata (clinical isolate); assay: Broth dilution susceptibility test, MIC and percent growth (Example 5)
Method: These experiments were conducted to determine the effect of BromAc alone and in combination with existing antifungal drugs against Candida glabrata (clinical isolate).
as §1, §2, §3, §4

Candida kruseii = assay: Susceptibility assay of antifungals with BromAc (Example 4); conditions: antifungal in combination with BromAc (5 mg/ml Acetylcysteine+12.5 μg/ml Bromelain) vs alone
Method: (§5) The in vitro antifungal properties of Bromelain, Acetylcysteine, BromAc, Amphotericin B, Isavuconazole, Fluconazole and Posaconazole were determined using a broth microdilution method in round bottom 96 well plates in accordance with standard procedures defined by the Clinical Laboratory Standards Institute (CLSI).
(§6) Unless otherwise described, fungal cultures were grown on potato dextrose agar plates at 35° C. until mature (appearance of conidia) and used to prepare suspensions in sterile water. Suspensions were diluted in RPMI 1:60. These suspensions were then added in equal volume to solutions containing the candidate species described above and incubated at 35° C. for 24 hr. Plates were then analysed for fungal growth inhibition and MIC values determined.
(§7) BromAc (5 mg/ml Acetylcysteine+12.5 μg/ml Bromelain) was used in combination with Amphotericin B, Isavuconazole, Posaconazole and Fluconazole. The MIC values of these four antifungal agents against the fungus described below were calculated and compared with their corresponding MIC values in the presence of BromAc, using the standard susceptibility assays described above.
(§8) The fungal strains set out in Table 2, all of which were sourced from a range of clinical isolates from Australian hospitals, were used in these experiments to gain a further understanding of the efficacy of BromAc in combination with Amphotericin B, Isavuconazole, Posaconazole and Fluconazole.

Candida tropicalis = assay: as above; conditions: antifungal in combination with BromAc (5 mg/ml Acetylcysteine+12.5 μg/ml Bromelain) vs alone
Method: as §5, §6, §7, §8

Cryptococcus = assay: as above
Method: as §5, §6, §7, §8

Candida auris = assay: as above; conditions: Candida aurus; antifungal in combination with BromAc (5 mg/ml Acetylcysteine+12.5 μg/ml Bromelain) vs alone
Method: as §5, §6, §7, §8

Candida glabrata = assay: as above; conditions: antifungal in combination with BromAc (5 mg/ml Acetylcysteine+12.5 μg/ml Bromelain) vs alone
Method: as §5, §6, §7, §8

SMILES | MIC ([1]; Aspergillus fumigatus, ATCC13697, FIGS. 13a, 14a, read-out: MIC) [µg/mL] | effect at lower concentrations (in words) ([1]; Voriconazole 1 μg/ml and 0.5 μg/ml, Caspofungin 0.25 μg/ml and 0.125 μg/ml) | MIC ([2]; Pichia kudriavzevii, ATCC6258, 50% growth inhibition, FIG. 11) [µg/mL] | inhibition at 32 µg/mL ([2]; Pichia kudriavzevii, ATCC6258, Posaconazole 1 ug/ml, Fluconazole 32 μg/ml, read-out: activity (growth inhibition) at its MIC) [%] | effect at lower doses / concentrations compared to GC (in words) ([2]; below the MIC (Posaconazole 0.03 μg/ml)) | MIC ([3]; Nakaseomyces glabratus, 50% growth inhibition, 24 hours, 625 nm) [µg/mL] | effect at lower concentration compared to growth control (in words) ([3]; concentrations lower than the MIC) | Observed inhibitory effect (Candida kruseii) | Observed inhibitory effect (Candida tropicalis) | Observed inhibitory effect (Cryptococcus; antifungal in combination with BromAc (5 mg/ml Acetylcysteine+12.5 μg/ml Bromelain) vs alone) | isolates with more than 10× increase (Cryptococcus; antifungal with BromAc) | Observed inhibitory effect (Candida auris) | Observed inhibitory effect (Candida glabrata)
C[C@@H](c1ncncc1F)[C@](O)(Cn1cncn1)c1ccc(F)cc1F [Voriconazole] | 2 | almost no inhibitory effect |  |  |  |  |  |  |  |  |  |  | 
OC(Cn1cncn1)(Cn1cncn1)c1ccc(F)cc1F [Fluconazole] |  |  | 32 | 50 | no efficacy | > 32 | no change | Strong (Strong = 5-10x (or greater) inhibitory effect) | Strong (Strong = 5-10x (or greater) inhibitory effect) | Strong (Strong = 5-10x (or greater) inhibitory effect) | 5 of 5 | No effect | Strong (Strong = 5-10x (or greater) inhibitory effect)
